Assay: mn = molality of the nth substance listed, in mol/kg
Conditions: 101 kPa, Liquid; for molar conductivity: Alternating current cell with electrodes; for mass density: Vibrating tube method

Cc1cccc(C(=O)O)c1[O-].[Na+] [sodium 2-hydroxy-3-methylbenzoate] + O
Conditions | mass density, 298.15 K [kg/m3] | molar conductivity, 278.15 K [S·m2/mol] | molar conductivity, 283.15 K [S·m2/mol] | molar conductivity, 288.15 K [S·m2/mol] | molar conductivity, 293.15 K [S·m2/mol] | molar conductivity, 298.15 K [S·m2/mol] | molar conductivity, 303.15 K [S·m2/mol] | molar conductivity, 308.15 K [S·m2/mol] | molar conductivity, 313.15 K [S·m2/mol]
m1 = 0.0001789 | – | 0.004702 | 0.005436 | 0.006213 | 0.007035 | 0.007891 | 0.008781 | 0.009702 | 0.01065
m1 = 0.0004159 | – | 0.004659 | 0.005386 | 0.006159 | 0.006975 | 0.007824 | 0.008709 | 0.009625 | 0.01056
m1 = 0.0007115 | – | 0.004632 | 0.005354 | 0.006119 | 0.006928 | 0.007773 | 0.008653 | 0.009562 | 0.01049
m1 = 0.001003 | – | 0.004611 | 0.00533 | 0.006091 | 0.006896 | 0.007731 | 0.008606 | 0.009511 | 0.01044
m1 = 0.001322 | – | 0.004591 | 0.005306 | 0.00606 | 0.006862 | 0.007698 | 0.00857 | 0.00947 | 0.0104
m1 = 0.001698 | – | 0.004566 | 0.005277 | 0.006032 | 0.00683 | 0.007665 | 0.008535 | 0.009432 | 0.01036
m1 = 0.002088 | – | 0.004547 | 0.005256 | 0.006008 | 0.006803 | 0.007632 | 0.008498 | 0.009395 | 0.01031
m1 = 0.002646 | – | 0.004526 | 0.005232 | 0.005981 | 0.006772 | 0.007599 | 0.008457 | 0.009327 | 0.01024
m1 = 0.003288 | – | 0.004504 | 0.005206 | 0.005951 | 0.006738 | 0.007542 | 0.008399 | 0.009286 | 0.0102
m1 = 0.004113 | – | 0.004483 | 0.005178 | 0.005905 | 0.006688 | 0.007504 | 0.008356 | 0.00924 | 0.01015
m1 = 0.005007 | 997.408 | 0.004457 | 0.00514 | 0.005873 | 0.00665 | 0.007462 | 0.008307 | 0.009184 | 0.01009
m1 = 0.09201 | 1003.59 | – | – | – | – | – | – | – | –

From the NIST ThermoML archive (doi:10.1021/je200836x)
